# Source: article PMC10401651, “Characterization of Uranyl (UO2^2+) Ion Binding to Amyloid Beta (Aβ) Peptides: Effects on Aβ Structure and Aggregation” (ACS Chemical Neuroscience, 2023)
# “And” between values parts separate entries of the source, which are not always exact repeats. Equal entries are not always repeated. Where two headings read alike, the source gives them in different places.
# Tests used:
# Aβ40 peptides [1] = target: T1, Aβ40 peptides (Homo sapiens, UniProt P05067); assay: ThT fluorescence measurements of Aβ40 aggregation kinetics; format: biochemical; settings: for t1/2 (aggregation halftime): 15 h; for ΔThT (increase in ThT fluorescence): 20 μM Aβ40, pH 7.3, 37 °C, end of 15 h
# T1 construct: namely, the Aβ40 peptide; purchased AlexoTech AB (Umeå, Sweden); host or cells: recombinant
# T1 sequence (P05067 672-711 limits assumed): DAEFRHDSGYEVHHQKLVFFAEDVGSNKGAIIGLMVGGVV
# Experimental: Fitting eq 1 to the ThT fluorescence curves in Figure 1 produced the kinetic parameters Tlag and t1/2 (Table 1). […] The two samples with 0 and 0.04 μM uranyl both have aggregation half-times of around 3 h and lag times of around 2 h under the experimental conditions (Table 1). The aggregation of the 0.2 μM uranyl sample is clearly slower, with a half-time of almost 7 h and a lag time of around 5 h.
# Thioflavin T is a benzothiazole dye that increases in fluorescence upon binding to amyloid aggregates[116] and is therefore used to monitor the formation of amyloid aggregates. The ThT dye was excited at 440 nm, and ThT fluorescence emission at 480 nm was measured every 5 min. Before each measurement, the plate was shaken in orbital mode for 140 s at 200 rpm. The samples were incubated for a total of 15 h, and the assay was repeated three times with four replicates of each condition. To determine kinetic aggregation parameters, the data was fitted to eq 1: [drawing 1] 1 Here, F0 and F∞ are the intercepts of the initial and final fluorescence intensity baselines, m0 and m∞ are the slopes of the initial and final baselines, t1/2 is the time needed to reach halfway through the elongation phase (i.e., aggregation half-time), and τ is the elongation time constant.[116]
# Aβ40 peptides [2] = target: T1, Aβ40 peptides; assay: Fluorescence measurements of dityrosine cross-link formation; format: biochemical; settings: 100 μM uranyl acetate, 10 μM Aβ40, 20 mM MES pH 7.3, 24 h, room temperature
# Experimental: Two samples of Aβ40 peptides were studied. The control sample contained 100 μM EDTA to remove possible contaminating metal ions that could promote dityrosine formation. […] For both samples, the fluorescence spectra are virtually identical before and after 24 h of incubation (Figure 6). Specifically, no peak around 410 nm, indicative of dityrosine,[129],[130] has emerged.
# Fluorescence emission spectra between 330 and 480 nm (excitation at 315 nm) were recorded at room temperature with a Jobin Yvon Horiba Fluorolog 3 fluorescence spectrometer (Longjumeau, France) for two samples of 10 μM Aβ40 peptide in 20 mM MES buffer, pH 7.3. […] The control sample contained 100 μM of the chelator EDTA to remove any free metal ions. All measurements were conducted in triplicate using a quartz cuvette with a 4 mm path length and containing a 0.7 mL liquid sample. Spectra were recorded after 0 and 24 h of incubation, during which the samples were kept at room temperature without agitation or other treatment.
# Aβ40 peptide = target: T2, Aβ40 peptide (Homo sapiens, UniProt P05067); assay: Binding affinity via Tyr10 fluorescence quenching, Aβ40; settings: for Kd: 20 μM Aβ40
# T2 construct: namely, the Aβ40 peptide and the Aβ40 (H6A, H13A, and H14A) triple-mutant; purchased AlexoTech AB (Umeå, Sweden); host or cells: recombinant
# T2 sequence (P05067 672-711 limits assumed): as above
# Experimental: (§1) Fluorescence measurements were conducted on a Jobin Yvon Horiba Fluorolog 3 fluorescence spectrophotometer (Longjumeau, France) using a quartz cuvette with a 4 mm path length. […] Apparent dissociation constants (KD^App) were determined by fitting the plots to eq 2 [drawing 2] 2 where I0 is the initial fluorescence intensity with no added UO2^2+ ions, I∞ is the steady-state intensity at the end of the titration, [Ab] is the protein concentration, and [U] is the concentration of added UO2^2+ ions.[121],[160]
# [3] = target: T3, Aβ40 (H6A, H13A, and H14A) triple-mutant, Aβ40 (NoHis) (Homo sapiens, UniProt P05067, H677A/H684A/H685A); assay: Binding affinity via Tyr10 fluorescence quenching, Aβ40 (NoHis) mutant; settings: 20 μM Aβ40 (NoHis)
# T3 construct: the Aβ40 (H6A, H13A, and H14A) triple-mutant; purchased AlexoTech AB (Umeå, Sweden); host or cells: recombinant
# T3 sequence (P05067 672-711 H677A/H684A/H685A): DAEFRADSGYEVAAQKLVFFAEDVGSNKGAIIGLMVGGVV
# [4] = target: T3, Aβ40 (H6A, H13A, and H14A) triple-mutant, Aβ40 (NoHis); assay: as above; settings: 20 μM Aβ40 (NoHis); remark: listed apart in the source
# Description: Synthetic lyophilized wt Aβ (1–42) peptides, abbreviated as Aβ42, with the primary sequence DAEFR5HDSGY10EVHHQ15KLVFF20AEDVG25SNKGA30IIGLM35VGGVV40IA, were purchased from JPT Peptide Technologies (Germany). Two recombinant Aβ variants were purchased as lyophilized powder from AlexoTech AB (Umeå, Sweden), namely, the Aβ40 peptide and the Aβ40 (H6A, H13A, and H14A) triple-mutant, which in the following is referred to as the Aβ40 (NoHis) mutant. The Aβ40 peptide was also purchased uniformly single-labeled with ^15N isotopes. All Aβ40 peptide variants were stored at −80 °C until use. Before measurements, they were dissolved in 10 mM NaOH and then sonicated in an ice bath for 5 min to avoid pre-formed aggregates. The samples were then diluted in either sodium phosphate buffer at pH 7.3 or in MES buffer at pH 7.3 or 5.1. The peptide concentrations were initially estimated from the weight of the dry powder and then more accurately determined with a NanoDrop spectrophotometer.
# as §1, with “length. The fluorescence emission intensity of samples containing 20 μM Aβ peptides in 20 mM MES buffer, at either pH 7.3 or pH 5.5 and without or with 50 mM SDS detergent present, was measured at 305 nm (excitation wavelength 276 nm) at 20 °C.” for “length.”
# [5] = 0.04 μM uranyl acetate, 20 μM Aβ40, 20 mM MES pH 7.3, 37 °C
# [6] = 0.2 μM uranyl acetate, 20 μM Aβ40, 20 mM MES pH 7.3, 37 °C
# [7] = 0.2 μM uranyl acetate, 20 μM Aβ40, 20 mM MES pH 7.3, 37 °C, listed as uranyl
# [8] = pH 5.1 + 50 mM SDS, read-out: KD^App, single replicates
# [9] = pH 5.1 + 50 mM SDS, three replicates, read-out: KD^App, average
# [10] = pH 5.1, 20 mM MES, read-out: KD^App, single replicates
# [11] = pH 5.1, 20 mM MES, three replicates, read-out: KD^App, average
structure (smiles),measurement,setting,value
"CC(=O)[O-].CC(=O)[O-].[O]=[U+2]=[O] [uranyl ions, uranyl acetate]",Tlag (lag time),Aβ40 peptides [1]; [5],2.0 ± 1.1 h
same,t1/2 (aggregation halftime),Aβ40 peptides [1]; [5],around 3 h
same,Tlag (lag time),"Aβ40 peptides [1]; 0.04 μM uranyl acetate, 20 μM Aβ40, 20 mM MES pH 7.3, 37 °C, listed as uranyl",around 2 h
same,ΔThT (increase in ThT fluorescence),Aβ40 peptides [1]; 0.04 μM uranyl acetate,1286 a.u.
same,Tlag (lag time),Aβ40 peptides [1]; [6],5.2 ± 0.9 h
same,t1/2 (aggregation halftime),Aβ40 peptides [1]; [6],6.7 ± 1.4 h
same,t1/2 (aggregation halftime),Aβ40 peptides [1]; [7],~7 h
same,Tlag (lag time),Aβ40 peptides [1]; [7],around 5 h
same,ΔThT (increase in ThT fluorescence),Aβ40 peptides [1]; 0.2 μM uranyl acetate,958 a.u.
same,ΔThT (increase in ThT fluorescence),Aβ40 peptides [1]; 0.4 μM uranyl acetate,101 a.u.
same,"lag time, visually estimated","Aβ40 peptides [1]; 0.4 μM uranyl, 20 μM Aβ40, 20 mM MES pH 7.3, 37 °C",approximately 9 h
same,ΔThT (increase in ThT fluorescence),Aβ40 peptides [1]; 2 μM uranyl acetate,0 a.u.
same,ΔThT (increase in ThT fluorescence),Aβ40 peptides [1]; 20 μM uranyl acetate,0 a.u.
same,Aβ40 aggregation seen in ThT curves,"Aβ40 peptides [1]; 2 and 20 μM uranyl, 20 μM Aβ40, 15 h",no obvious signs of aggregation after 15 h
same,formation of dityrosine cross-links,Aβ40 peptides [2],do not induce the formation of dityrosine cross-links
same,affinities for binding to Aβ peptides,Aβ40 peptide; general statement of the abstract,micromolar range
same,Kd,Aβ40 peptide; [8],21.8 µM and 21.7 µM and 27.4 µM
same,Kd,Aβ40 peptide; [9],23.6 ± 3 µM
same,Kd,Aβ40 peptide; [10],14 µM and 13.7 µM and 21.3 µM
same,Kd,Aβ40 peptide; [11],16.3 ± 4 µM
same,Kd,"Aβ40 peptide; pH 7.3 + 50 mM SDS, not to be trusted, read-out: KD^App, single replicates",206 µM and 252 µM and 251 µM
same,Kd,"Aβ40 peptide; pH 7.3 + 50 mM SDS, three replicates, not to be trusted, read-out: KD^App, average",236 ± 22 µM
same,Kd,"Aβ40 peptide; pH 7.3, 20 mM MES, data deviate from single-site model, not to be trusted, read-out: KD^App, single replicates",130 µM and 141 µM and 148 µM
same,Kd,"Aβ40 peptide; pH 7.3, 20 mM MES, three replicates, not to be trusted, read-out: KD^App, average",140 ± 8 µM
same,Kd,[3]; [8],22.3 µM and 30.7 µM and 27.9 µM
same,Kd,[3]; [9],27 ± 4 µM
same,Kd,[3]; [10],2.3 µM and 2.8 µM and 4 µM
same,Kd,[3]; [11],3 ± 1 µM
same,Kd,"[4]; pH 7.3 + 50 mM SDS, read-out: KD^App, single replicates",119 µM and 124 µM and 116 µM
same,Kd,"[4]; pH 7.3 + 50 mM SDS, three replicates, read-out: KD^App, average",120 ± 4 µM
same,Kd,"[4]; pH 7.3, 20 mM MES, read-out: KD^App, single replicates",62 µM and 86 µM and 79 µM
same,Kd,"[4]; pH 7.3, 20 mM MES, three replicates, read-out: KD^App, average",76 ± 11 µM
